This note sets out measurements from patent publication US20130190394A1, “Applications Of Arctigenin In Formulating Drugs For Preventing Or Treating Diseases Related To Red Blood Cell Reduction” (priority 2010, published 2013).

Structures can show the parent of a compound that is named as a salt.

Data set [1] deals with Tumor-bearing mice (murine cancer cell line s180). Nature of the data set: Effects of Arctigenin on myelosuppression caused by chemotherapy in tumor-bearing mice (blood routine examination). It is filed as in vivo, Kunming mice. The conditions noted are these: for Neutrophil / White Blood Cells / platelet: s180 tumor-bearing mice, 10 days once per day, Docetaxel 75 mg/m^2/d, Imatinib Mesylate 222.2 mg/m^2/d tail vein, Arctigenin 10 mg/m^2/d peritoneal, n=10. As to the method:
(§1) The cell suspension was injected into abdominal cavity of mice under sterile conditions. The mice were sacrificed by cervical dislocation at 7 days after inoculation when the abdominal cavity expanded obviously, and then soaked in a flask with 75% ethanol for 2-3 min. The sterilized mice were placed on a superclean bench with abdomen exposed. The ascites were taken with sterile injectors and stored in sterile vials for further use. The ascites was counted by Trypan blue staining, and then diluted to 2.0×10^7 cell/ml with physiological saline. The animals were inoculated with the dilutions in the right armpit at 0.2 ml/animal.
The inoculated animals were divided randomly into following six groups with 10 animals each group (F:M=1:1): • 1. Model Group (Group M): receiving peritoneal injection of 0.9% physiological saline; • 2. Docetaxel Group (Group D): receiving 75 mg/m^2/d Docetaxel; • 3. […] Arctigenin Group (Group A): receiving 10 mg/m^2/d Arctigenin; • 5. Docetaxel plus Arctigenin Group (Group D+A): receiving 75 mg/m^2/d Docetaxel plus 10 mg/m^2/d Arctigenin; • 6.
(§2) Docetaxel and Imatinib Mesylate were administered via tail vein injection at dosages of 20 ml/kg. Arctigenin was administered via peritoneal injection at a dosage of 10 ml/kg. The administration was given to each group once per day for 10 days in total. During the experimental process, the animals were observed everyday for their diets, survivals and behaviors and weighted every day. At the end of the experiment, the animals were anaesthetized and anatomize to draw blood from abdominal vena cava for blood routine examination, including total white blood cell count, total platelet count and neutrophil count.

Data set [2] can be described thus: Body weight and tolerability of tumor-bearing mice during administration. The conditions noted are these: for Body weight before administration: mouse, in vivo. It is filed as in vivo, Kunming mice. As to the method: as §1, with “The murine cancer cell line s180 was cultured in 1640 culture medium at 37° C., 5% CO2, sub-cultured every two days on average till logarithmic growth phase and then prepared into single cell suspension at 3.0×10^7 cell/ml with physiological saline. The cell” for “The cell”
The inoculated animals were divided randomly into following six groups with 10 animals each group (F:M=1:1): • 1. Model Group (Group M): receiving peritoneal injection of 0.9% physiological saline; • 2. Docetaxel Group (Group D): receiving 75 mg/m^2/d Docetaxel; • 3. Imatinib Mesylate Group (Group IM): receiving 222.2 mg/m^2/d Imatinib Mesylate; • 4. Arctigenin Group (Group A): receiving 10 mg/m^2/d Arctigenin; • 5. Docetaxel plus Arctigenin Group (Group D+A): receiving 75 mg/m^2/d Docetaxel plus 10 mg/m^2/d Arctigenin; • 6. Imatinib Mesylate plus Arctigenin Group (Group IM+A): receiving 222.2 mg/m^2/d Imatinib Mesylate plus 10 mg/m^2/d Arctigenin.
as §2

Data set [3] deals with mice received ^60Co radiation at 4Gy. In words: Effects of Arctigenin on blood cell counts of mice under 60Co radiation. It is filed as in vivo, Kunming mice. From the text:
1.1 Animals: Kunming mice (purchased from National Institute for the Control of Pharmaceutical and Biological Products, China; Laboratory Animal NO: SCXK II-00-0010; female/male ratio at 1:1; Age: 7 weeks; […] The rest mice were included in the experiment. The mice fulfilled the experimental requirements after radiation were divided randomly into the following groups of: model group, group of burdock extract and Arctigenin group (each group: n=10; F/M=1:1). Each group was subjected to treatment or administration as follows: • 1. Normal Group (Group N): peritoneal injection of 0.9% physiological saline at a volume of 10 ml/kg; • 2. Model Group (Group M): peritoneal injection of 0.9% physiological saline at a dose of […]; • 3. Group of burdock Extract (Group E): peritoneal injection of water […] of Arctium lappa at a dose of 3.5 ml/kg/d; • 4. Arctigenin Group (Group A): peritoneal injection of 10 mg/kg/d Arctigenin at a volume of 10 ml/kg. Said burdock extract was prepared by: 1) placing burdock in a pot, adding water till the plant was immerged; 2) soaking burdock for 30 min for promoting the extraction of the effective components; 3) rapidly heating till boiling, fully boiling for 1-3 min, further heating for 20-30 min for concentration, and filtrating through sterile gauzes into a beaker; and 4) mixing the first dose with re-extracted agents uniformly after the first extraction for balancing their effects. 200 ml water extracts were prepared from 1 kg burdock. The administration was given to each group once per day for 10 days in total. During the experimental process, the animals were observed everyday for their diets, survivals and behaviors and weighted every day. At the end of the experiment, the animals were anaesthetized and anatomize to take blood from abdominal vena cava for blood routine examination, including total white blood cell count and total platelet count.

Another data set concerns NOD mouse. Nature of the data set: Effects of Arctigenin on white blood cell and platelet of NOD mouse. The conditions noted are these: for White Blood Cells / platelets: NOD/Ltj mice, n=13. It counts as in vivo, NOD/Ltj mice. From the text:
Non-obese diabetic or NOD mice is a large mouse strain, including NOD/Scid, NOD/Ltj mice and the like. Yi Feng (Yi Feng, et al., “In vitro Expansion of Cord Blood Megakaryocyte Progenitor”, ACTA Academiae Medicinae Sinicae, Vol. 27, NO. 2, pp 199-204) directly expanded megakaryocyte progenitor from cord blood CD34+ cells by using thrombopoietin (TPO), interleukin-11 (IL-11) and heparin in combination. Intravenous infusion of the megakaryocytes expanded for 7 days (at a concentration of 5×10^6) into NOD/SCID mice received pre-treatment of radiation could accelerate the recovery of platelet and white blood cell account and improved the survival of the mice.
1.1 Animals: 52 NOD/Ltj mice (purchased from Vital River Laboratory Animal Technology Co., Ltd., Beijing; Laboratory Animal NO: SCXK (BJ) 2006-2009), female, Age: 5 weeks, Body weight: 16-20 g.
After one week of adaptive feeding, healthy NOD mice aged of 5 weeks were divided randomly into 4 groups: • I. Model Control Group: 13 animals; • II. Positive Control Group: 13 animals receiving gavage of interleukin at dose of 10.0 mg/kg every day; • III. Low-dose Arctigenin Group: 13 animals receiving gavage of […] at dose of 30 mg/kg every day; • IV. High-dose Arctigenin Group: 13 animals receiving gavage of […] at dose of 60 mg/kg every day.
The administration was given consecutively to each group once per day, and stopped after 15 days. The animals were then anaesthetized (3% pentobarbital sodium via intraperitoneal injection at 0.1˜0.15 ml/animal) and 1 ml blood was taken via abdominal vena cava for blood routine examination.

Setting [4] is: mice after 60Co 4 Gy whole body radiation, peritoneal injection once per day for 10 days, Arctigenin 10 mg/kg/d, burdock water extract 3.5 ml/kg/d, n=10.
[5] abbreviates: high-dose, gavage 60 mg/kg every day for 15 days.
Where [6] appears, read: low-dose, gavage 30 mg/kg every day for 15 days.

Regarding `COc1cc(C[C@H]2C(=O)OC[C@@H]2Cc2ccc(OC)c(OC)c2)ccc1O` [Arctigenin], in data set [1], the Neutrophil is 1.316 ± 0.15^#**^$$ 10^9/L, the “White Blood Cells” value was 3.530 ± 0.31^##**^$$ 10^9/L and the platelet is on record as 687.4 ± 37.3^## 10^9/L. Further, the “Total white blood cell count and total neutrophil count compared with the Docetaxel group and the imatinib mesylate group” value in data set [1] (tumor-bearing mice, P<0.01, in words) is “significant increases in total white blood cell count and total neutrophil count”. For the same compound, the “Total white blood cell count and total neutrophil count compared with the model group” value in data set [1] (tumor-bearing mice, P<0.01 or P<0.05, in words) is “increase in both the total white blood cell count and the total neutrophil count”. Also, the “Body weight before administration” value in data set [2] was determined as 21.1 ± 3.0 g. In addition, the “Toxic or side effects” value in data set [2] (tumor-bearing mice, 10 days administration, in words) is “does not have significant toxic or side effects”. Further, the “Total white blood cell count and platelet count in comparison with the model group” value in data set [3] (60Co 4 Gy radiated mice, P<0.01 or P<0.05, in words) is “increase in both total white blood cell count and the platelet count”. In addition, in data set [3] (setting [4]), the “White Blood Cells” value was 4.225 ± 0.51^##$ 10^9/L and the platelet is recorded as 596.2 ± 72.5^#$ 10^9/L. In the data set on NOD mouse (NOD mice, low-dose and high-dose groups, in words), the “White blood cell counts and platelet counts compared with model group” value is reported as “significantly higher”. Further, in the data set on NOD mouse (setting [5]), the “White Blood Cells” value is 4.225 ± 0.51^##$ 10^9/L and the platelets is reported as 780.2 ± 46.5^##$$ 10^9/L. In the data set on NOD mouse (setting [6]), the “White Blood Cells” value is listed as 3.242 ± 0.45^#$ 10^9/L and the platelets is given as 730.5 ± 34.6^##$ 10^9/L.
For the compound `CC(=O)O[C@@]12CO[C@@H]1C[C@H](O)[C@@]1(C)C(=O)[C@H](O)C3=C(C)[C@@H](OC(=O)[C@H](O)[C@@H](NC(=O)OC(C)(C)C)c4ccccc4)C[C@@](O)([C@@H](OC(=O)c4ccccc4)[C@H]21)C3(C)C` [Group D, Docetaxel], in data set [1], the Neutrophil was 0.670 ± 0.12 10^9/L, the “White Blood Cells” value was 2.773 ± 0.46 10^9/L and the platelet is 450.6 ± 30.5 10^9/L. The “Neutrophil numbers in comparison with Group M” value in data set [1] (tumor-bearing mice, in words) is given as “decreased significantly”. The “Body weight before administration” value in data set [2] turned out to be 21.2 ± 1.8 g.
For `Cc1ccc(NC(=O)c2ccc(CN3CCN(C)CC3)cc2)cc1Nc1nccc(-c2cccnc2)n1` [Group IM, Imatinib Mesylate] the same measures were 0.695 ± 0.09 10^9/L, 2.703 ± 0.37 10^9/L, 432.9 ± 34.8 10^9/L, “decreased significantly” and 21.3 ± 2.3 g.
